US20240368174A1, “Antiviral Heterocyclic Compounds” (Enanta Pharmaceuticals, Inc., priority 2023, published 2024)

Assays:
[1] = tested on: genotype A, “Long” strain RSV; test: RSV-A assay (CPE, ATPlite readout in Hep-2 cells); format: cell-based, Human respiratory syncytial virus; settings: human respiratory syncytial virus, activity class
Outline: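 ATPlite luminescence (cellular ATP) served as the measure of cell health after 5 days of infection. Hep-2 cells at 8,000 per well received duplicate 2-fold compound dilutions plus virus at MOI 0.1, and EC50 was calculated from CPE protection.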

[2] = tested on: HMPV clinical isolate A2 strain TN 94-49; test: HMPV antiviral assay, Method 1 (LLC-MK2 cells, ATP-Lite); format: cell-based; settings: human metapneumovirus, hMPV A2 TN/94-49, LLC-MK2 cells
Outline: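 EC50 derived by four-parameter logistic fit of percent cell health, measured as ATP-Lite luminescence after 7 days at 37° C, 5% CO2. Compounds tested as 10-point 2.5-fold dilutions starting at 2 μM against TN 94-49 virus (MOI 0.005) in LLC-MK2 cells seeded at 5,000/well, infection medium containing 2 μg/mL TPCK-trypsin, serum-free.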

[3] = tested on: HMPV clinical isolate A2 strain TN 94-49; test: HMPV antiviral assay, Method 2 (LLC-MK2 cells with CP-100-356, ATP-Lite); format: cell-based; settings: human metapneumovirus; hMPV A2 TN/94-49, LLC-MK2 cells with CP-100-356, Method 2
Outline: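 EC50 comes from a four-parameter fit of percent cell viability (ATP-Lite, normalized to virus-only and cell-only wells) after 7 days at 37 °C. Infection used HMPV A2 TN 94-49 at MOI 0.16 in LLC-MK2 cells, with 2 μM P-gp inhibitor CP-100-356 and 2 μg/mL TPCK-trypsin final; dose range 200 nM top, 2.5-fold, 10 points, duplicate.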

[4] = tested on: HRSV; settings: prophylactic use, high risk infants; cited from earlier work

| Molecule | EC50 [1] | EC50 [2] | EC50 [3] | effective in reducing hospitalizations [4] |
| --- | --- | --- | --- | --- |
| C[C@]1(C(N)=O)COc2c1cc([C@@](O)(CNC(=O)c1cc(OC3CC3)c3nn(C4CC4)cc3c1)C1CC(F)(F)C1)nc2-c1cc(F)c(F)cc1F [Example 32] | < 200 nM | < 500 nM | – | – |
| C[C@]1(C(N)=O)COc2c1cc([C@@](O)(CNC(=O)c1ccc3nc(N)sc3c1)C1CC1)nc2-c1cc(F)c(F)cc1F [Example 73] | < 200 nM | > 500 nM | – | – |
| Cc1nc2ccc(C(=O)NC[C@](O)(c3cc4c(c(-c5cc(Cl)c(F)cc5F)n3)OC[C@]4(C)C(N)=O)C3CC3)cc2s1 [Example 74] | < 200 nM | < 500 nM | – | – |
| Cc1nc2ccc(C(=O)NC[C@](O)(c3cc4c(c(-c5cc(Cl)c(F)cc5F)n3)OC[C@]4(C)C(N)=O)C3CC3)cc2o1 [Example 75] | < 200 nM | < 500 nM | – | – |
| Cc1nc2c(OC3CC3)cc(C(=O)NC[C@](O)(c3cc4c(c(-c5cc(Cl)c(F)cc5F)n3)OC[C@]4(C)C(N)=O)C3CC3)cc2s1 [Example 76] | < 200 nM | < 500 nM | – | – |
| [2H]C([2H])([2H])c1nc2ccc(C(=O)NC[C@](O)(c3cc4c(c(-c5cc(Cl)c(F)cc5F)n3)OC[C@]4(C)C(N)=O)C3CC3)cc2o1 [Example 91] | < 200 nM | < 500 nM | – | – |
| [2H]C([2H])([2H])c1nc2ccc(C(=O)NC[C@](O)(c3cc4c(c(-c5cc(F)c(F)cc5F)n3)OC[C@]4(C)C(N)=O)C3CC3)cc2o1 [Example 92] | < 200 nM | < 500 nM | – | – |
| [2H]C([2H])([2H])C1=NC2C(OC)=CC(C(=O)NC[C@](O)(c3cc4c(c(-c5ccc6c(c5Cl)OC(F)(F)O6)n3)OC[C@]4(C)C(N)=O)C3CC3)=CC2S1 (stereo partly drawn) [Example 127] | < 200 nM | < 500 nM | – | – |
| COc1cc(C(=O)NC[C@](O)(c2cc3c(c(-c4ccc5c(c4Cl)OC(F)(F)O5)n2)OC[C@]3(C)C(N)=O)C2CC2)cc2cn(C3(F)CC3)nc12 [Example 128] | < 200 nM | < 500 nM | – | – |
| C[C@]1(C(N)=O)COc2c1cc([C@@](O)(CNC(=O)c1cc(OC3CC3)c3nn(C(F)F)cc3c1)C1CC1)nc2-c1ccc2c(c1Cl)OC(F)(F)O2 [Example 129] | < 200 nM | < 500 nM | < 200 nM | – |
| COc1cc(C(=O)NC[C@](O)(c2cc3c(c(-c4cc(Cl)c(F)cc4F)n2)OC[C@]3(C)C(N)=O)[C@H]2CC2(F)F)cc2cn(C3CC3)nc12 [Example 150] | < 200 nM | < 500 nM | – | – |
| COc1cc(C(=O)NC[C@](O)(c2cc3c(c(-c4cc(Cl)c(F)cc4F)n2)OC[C@]3(C)C(N)=O)[C@@H]2CC2(F)F)cc2cn(C3CC3)nc12 [Example 151] | < 200 nM | < 500 nM | – | – |
| COc1cccc([C@](O)(CNC(=O)c2cc(OC)c3nn(C(F)F)cc3c2)c2cc3c(c(-c4cc(Cl)c(F)cc4F)n2)OC[C@]3(C)C(N)=O)c1 [Example 161] | < 200 nM | < 500 nM | – | – |
| COc1cccc([C@](O)(CNC(=O)c2cc(OC)c3nn(C4(F)CC4)cc3c2)c2cc3c(c(-c4cc(Cl)c(F)cc4F)n2)OC[C@]3(C)C(N)=O)c1 [Example 162] | < 200 nM | < 500 nM | < 200 nM | – |
| C=C(CNC(=O)c1cc(OC)c2nn(C3CC3)cc2c1)c1cc2c(c(-c3cc(Cl)c(F)cc3F)n1)OC[C@]2(C)C(N)=O [Example 214] | < 200 nM | > 500 nM | – | – |
| [2H]c1nc2c(OC(F)F)cc(C(=O)NC[C@](O)(c3cc4c(c(-c5cc(Cl)c(F)cc5F)n3)OC[C@]4(C)C(N)=O)C3CC3)cc2cc1C([2H])([2H])[2H] [Example 218] | < 200 nM | < 500 nM | < 200 nM | – |
| COc1cc(C(=O)NC[C@](O)(c2cc3c(c(-c4cc(Cl)c(F)cc4F)n2)OC[C@]3(C)C(N)=O)C2(CO)CC2)cc2cn(C3CC3)nc12 [Example 245] | < 200 nM | > 500 nM | – | – |
| C[C@]1(C(N)=O)COc2c1cc([C@@](O)(CNC(=O)c1cc(O)c3nn(C4CC4)cc3c1)C1CC1)nc2-c1cc(F)c(F)cc1F [Example 360] | < 200 nM | > 500 nM | < 200 nM | – |
| COc1cc(C(=O)NC[C@](O)(c2cc3c(c(-c4cc(C)c(F)cc4F)n2)OC[C@]3(C)C(N)=O)C2CC2)cc2cn(C3CC3)nc12 [Example 385] | < 200 nM | < 500 nM | < 200 nM | – |
| COc1cc(C(=O)NC[C@](O)(c2cc3c(c(-c4ccc(F)c(Cl)c4C)n2)OC[C@]3(C)C(N)=O)C2CC2)cc2cn(C3CC3)nc12 [Example 391] | < 200 nM | < 500 nM | – | – |
| COc1cc(C(=O)NC[C@](O)(c2cc3c(c(-c4ccc5c(c4C)OC(F)(F)O5)n2)OC[C@]3(C)C(N)=O)C2CC2)cc2cn(C3CC3)nc12 [Example 392] | < 200 nM | < 500 nM | – | – |
| COc1cc(C(=O)NC[C@](O)(c2cc3c(c(-c4cc(C(F)F)c(F)cc4F)n2)OC[C@]3(C)C(N)=O)C2CC2)cc2cn(C3CC3)nc12 [Example 393] | < 200 nM | < 500 nM | < 200 nM | – |
| COc1cc(C(=O)NC[C@](O)(c2cc3c(c(-c4cc(C(F)(F)F)c(F)cc4F)n2)OC[C@]3(C)C(N)=O)C2CC2)cc2cn(C3CC3)nc12 [Example 394] | < 200 nM | < 500 nM | < 200 nM | – |
| COc1cc(C(=O)NC[C@](O)(c2cc3c(c(-c4ccc5c(c4Cl)OC(F)(F)O5)n2)OC[C@]3(C)C(N)=O)C2CC2)cc2cn(C(F)F)nc12 [Example 457] | < 200 nM | < 500 nM | < 200 nM | – |
| Palivizumab: "a monoclonal antibody that is approved for prophylactic use, but its use is limited due to its high price" | – | – | – | 60% |
